Measured values taken from patent US5021419A, “Novel pyrazinoxide compound of NF-1616-904 and a pharmaceutical composition containing the same” (Otsuka Pharmaceutical Co., Ltd., priority 1987, dated 1991).

Columns and labels:
[1] = system: superoxide radicals (O2^-) release from the peritoneal macrophage cells of guinea pig; experiment: Inhibitory effect against superoxide radicals (O2^-) release from peritoneal macrophage cells by FMLP stimulation, cytochrome C reduction (Pharmacological Test-2); type: cell-based; details: Cavia porcellus, Peritoneal macrophage cell; FMLP 10^-7 M; 2×10^6 cells/ml; OD550; read-out: 50% inhibitory concentration (IC50)
Experimental: Inhibitory effect of the pyrazinoxide compound of NF-1616-904 against superoxide radicals (O2^-) release from the peritoneal macrophage cells of guinea pig by stimulation:
Mineral oil was intraperitoneally administered to a guinea pig, then 96 hours after the administration, the peritoneal microphage cells were obtained.
Superoxide radicals (O2^-) were determined by means of reduction of cytochrome C according to the procedures described in an article by T. Matsumoto, et al. in Biochemical and Biophysical Research Communications, Vol. 88, No. 3 (1979), pages 974-979.
Thus, the peritoneal macrophage cells were added to make the final concentration of 2×10^6 cells/ml into 1 ml of 80 μM-cytochrome C solution, further the pyrazinoxide compound of NF-1616-904 was added thereto to make the test group sample. On the other hand, water added in place of the pyrazinoxide compound of NF-1616-904 to make the control group sample. Both test group and control group samples were subjected to a pure incubation at 37° C. for 1 minute.
As to the stimulating agent for releasing superoxide radicals (O2^-), formylmethionylleucylphenylalanine (FMLP) was added to make the final concentration of 10^-7 M into the above-mentioned test group sample and control group sample. Then, both samples were subjected to additional reaction for 1 minute. […]

Masugi nephritis = experiment: Anti-albuminuria activity in Masugi nephritis (Pharmacological Test-3); type: in vivo, rat; details: oral; for Ratio of inhibition of albuminuria: 24 hours after NT, versus control; for Albuminuria: urine 24 hours after NT, mean±S.E., six rats, control 120 ± 30
Experimental: Anti-albuminuria activity of the pyrazinoxide compound of NF-1616-904 in Masugi nephritis
Rat nephrotoxin (hereinafter referred to as "NT") was prepared as follows. Thus, the kidney cortex of a rat was homogenized with an equal amount of physiological saline, then the thus obtained homogenate was admixed with Freund's complete adjuvant (manufacture by Difco Laboratories, Inc., Detroit, Mich., U.S.A.) in the ratio of 1:1. Then, 2 ml of this mixture was administered subcutaneously to a rabbit (body weight: 3.1 kg) to have said rabbit immunized. 1.5 Months after the immunization, the blood was sampled from the heart of said rabbit, and the serum was obtained thereform. The serum thus obtained was inactivated at 56° C. for 30 minutes, and subjected to fractionation by salting out with a aqueous solution saturated with 40% of ammonium sulfate. By sampling of immunoglobulin-γ-globulin (IgG) fraction, the desired NT was obtained.
This test was conducted by using Wisterstrain male rats having 150-160 g body weight. Pyrazinoxide compound of NF-1616-904 of the present invention […] were orally administered forcedly. Additionally, 1 ml of NT was administered intravenously to the tail vein of said rat. On the other hand, in place of pyrazinoxide compound of NF-1616-904, physiological saline was administered to other rats to make the control group.
The total amount of urinary protein being excreted in the urine during 24 hours after the administration of NT was determined by turbidity method using sulfosalicylic acid and bovine serum albumin (BSA) as the reference substance, according to procedures described in an article by F. Kingsbury, et al. in J. Lab. Clin. Med., Vol. 11, (1926), pages 981-989.
The ratio of inhibition of albuminuria (%) in the test group was calculated by referring to the measured value in the control group. The test results are shown in the following Table 2, in which each of the test data are shown at the mean value±S. E. of the six rats used in each of test and control groups.

P388/VCR cells = experiment: Effect for decreasing the tolerance against Vincristine in P388/VCR cells (Pharmacological Test-1); type: cell-based; details: Control group, NF-1616-902 0; 48 hours
Description: Effect for decreasing the tolerance against Vincristine in P388/VCR cells

Compound | IC50 [1] [µM] | Ratio of inhibition of albuminuria (Masugi nephritis; 30 mg/kg) [%] | Albuminuria (Masugi nephritis; 30 mg/kg) [mg/day] | Ratio of inhibition of albuminuria (Masugi nephritis; 60 mg/kg) [%] | Albuminuria (Masugi nephritis; 60 mg/kg) [mg/day] | Cytotoxic concentration of Vincristine (P388/VCR cells) [ng/mL]
COc1c(Cc2c[nH]c3ccccc23)[nH]c(=O)c(CC(C)C)[n+]1[O-] [NF-1616-904] | 12 | 62.5 | 45 ± 16 | 26.7 | 88 ± 18 | –
CC[C@]1(O)C[C@H]2CN(CCc3c([nH]c4ccccc34)[C@@](C(=O)OC)(c3cc4c(cc3OC)N(C=O)[C@H]3[C@@](O)(C(=O)OC)[C@H](OC(C)=O)[C@]5(CC)C=CCN6CC[C@]43[C@@H]65)C2)C1 [Vincristine] | – | – | – | – | – | 100
